What all share (parameters): scale not given: the % may be the effect or the level left
In test [1] the target is Vascular endothelial growth factor receptor 1 (Homo sapiens) (UniProt P17948). As to the kind of experiment: Inhibition of human FLT1 assessed as enzyme activity at 1 uM using poly[Glu:Tyr] (4:1) as substrate preincubated for 20 mins followed by [gamma-33P]-ATP addition and measured after 120 mins by radiometric Hot-SpotSM Kinase assay relative to control.
For test [2], the target named is T1, Serine/threonine-protein kinase Nek2 (Homo sapiens) (UniProt P51955).
T1 sequence (whole entry): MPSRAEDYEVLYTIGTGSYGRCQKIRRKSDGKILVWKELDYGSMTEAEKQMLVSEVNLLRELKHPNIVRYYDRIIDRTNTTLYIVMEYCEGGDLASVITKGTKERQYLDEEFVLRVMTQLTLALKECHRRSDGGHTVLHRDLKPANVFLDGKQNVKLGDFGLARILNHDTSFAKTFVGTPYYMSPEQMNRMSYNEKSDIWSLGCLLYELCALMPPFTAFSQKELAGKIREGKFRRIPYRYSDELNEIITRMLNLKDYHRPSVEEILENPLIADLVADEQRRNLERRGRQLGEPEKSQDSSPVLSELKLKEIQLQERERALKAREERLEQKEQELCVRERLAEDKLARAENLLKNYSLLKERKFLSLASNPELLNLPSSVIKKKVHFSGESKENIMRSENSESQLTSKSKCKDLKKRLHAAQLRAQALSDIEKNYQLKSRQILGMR
The experiment in a line: Inhibition of human NEK2 assessed as enzyme activity at 1 uM using myelin basic protein as substrate preincubated for 20 mins followed by [gamma-33P]-ATP addition and measured after 120 mins by radiometric Hot-SpotSM Kinase assay relative to control.

Test [3] addresses T2, Mitogen-activated protein kinase kinase kinase 2 (Homo sapiens) (UniProt Q9Y2U5).
T2 sequence (whole entry): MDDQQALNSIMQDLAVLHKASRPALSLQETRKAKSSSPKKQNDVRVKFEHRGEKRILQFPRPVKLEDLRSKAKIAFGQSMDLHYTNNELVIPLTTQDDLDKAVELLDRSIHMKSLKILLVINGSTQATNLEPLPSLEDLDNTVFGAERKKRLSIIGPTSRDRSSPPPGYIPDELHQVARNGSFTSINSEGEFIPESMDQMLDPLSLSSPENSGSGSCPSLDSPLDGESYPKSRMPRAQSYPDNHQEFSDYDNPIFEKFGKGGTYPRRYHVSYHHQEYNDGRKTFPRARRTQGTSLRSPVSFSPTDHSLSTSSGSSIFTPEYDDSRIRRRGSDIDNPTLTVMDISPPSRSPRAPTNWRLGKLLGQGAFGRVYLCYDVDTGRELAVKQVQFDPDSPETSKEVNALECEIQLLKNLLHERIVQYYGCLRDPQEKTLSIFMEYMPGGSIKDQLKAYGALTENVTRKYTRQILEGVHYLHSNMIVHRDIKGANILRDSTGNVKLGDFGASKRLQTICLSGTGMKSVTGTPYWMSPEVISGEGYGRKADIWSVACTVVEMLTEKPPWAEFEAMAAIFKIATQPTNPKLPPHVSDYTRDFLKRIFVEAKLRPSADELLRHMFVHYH
As to the kind of experiment: Inhibition of human MEKK2 assessed as enzyme activity at 1 uM using myelin basic protein as substrate preincubated for 20 mins followed by [gamma-33P]-ATP addition and measured after 120 mins by radiometric Hot-SpotSM Kinase assay relative to control.

Test [4] deals with T3, Serine/threonine-protein kinase TAO2 (Homo sapiens) (UniProt Q9UL54).
T3 sequence (whole entry): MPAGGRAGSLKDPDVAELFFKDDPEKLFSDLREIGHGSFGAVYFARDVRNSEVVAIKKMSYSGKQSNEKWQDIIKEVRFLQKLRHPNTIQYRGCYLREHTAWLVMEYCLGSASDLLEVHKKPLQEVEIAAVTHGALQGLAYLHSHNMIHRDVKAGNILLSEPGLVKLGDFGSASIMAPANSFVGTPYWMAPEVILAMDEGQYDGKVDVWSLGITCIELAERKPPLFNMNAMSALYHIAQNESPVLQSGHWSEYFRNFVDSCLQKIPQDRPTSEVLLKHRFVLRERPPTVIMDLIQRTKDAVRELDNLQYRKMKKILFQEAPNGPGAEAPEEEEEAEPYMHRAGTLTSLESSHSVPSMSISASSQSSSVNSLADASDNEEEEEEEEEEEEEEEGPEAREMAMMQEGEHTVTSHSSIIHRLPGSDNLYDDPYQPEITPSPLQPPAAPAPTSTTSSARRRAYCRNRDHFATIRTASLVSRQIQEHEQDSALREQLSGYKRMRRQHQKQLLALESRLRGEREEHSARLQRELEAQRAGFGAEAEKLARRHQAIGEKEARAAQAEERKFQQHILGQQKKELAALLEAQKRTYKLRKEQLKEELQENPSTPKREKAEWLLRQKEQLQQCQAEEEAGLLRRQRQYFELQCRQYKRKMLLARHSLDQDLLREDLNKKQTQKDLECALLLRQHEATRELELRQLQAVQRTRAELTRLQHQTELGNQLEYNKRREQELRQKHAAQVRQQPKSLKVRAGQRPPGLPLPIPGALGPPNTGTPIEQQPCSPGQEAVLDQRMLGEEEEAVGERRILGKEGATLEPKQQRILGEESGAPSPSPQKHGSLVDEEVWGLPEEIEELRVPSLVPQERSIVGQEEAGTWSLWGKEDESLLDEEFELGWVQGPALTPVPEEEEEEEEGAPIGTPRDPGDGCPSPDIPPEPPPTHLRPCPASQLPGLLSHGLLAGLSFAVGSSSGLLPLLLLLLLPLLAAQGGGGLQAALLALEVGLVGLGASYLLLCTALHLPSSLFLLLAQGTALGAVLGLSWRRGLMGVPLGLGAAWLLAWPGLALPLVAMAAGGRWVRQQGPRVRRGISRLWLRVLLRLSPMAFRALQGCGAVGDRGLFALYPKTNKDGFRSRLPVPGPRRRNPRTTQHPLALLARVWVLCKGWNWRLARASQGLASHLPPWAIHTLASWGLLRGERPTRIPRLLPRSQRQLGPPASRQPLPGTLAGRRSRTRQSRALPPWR
The experiment in a line: Inhibition of human TAOK2 assessed as enzyme activity at 1 uM using myelin basic protein as substrate preincubated for 20 mins followed by [gamma-33P]-ATP addition and measured after 120 mins by radiometric Hot-SpotSM Kinase assay relative to control.

SMILES strings stand for the structures.

Vascular endothelial growth factor receptor 1 (Homo sapiens), sequence (P17948 whole entry): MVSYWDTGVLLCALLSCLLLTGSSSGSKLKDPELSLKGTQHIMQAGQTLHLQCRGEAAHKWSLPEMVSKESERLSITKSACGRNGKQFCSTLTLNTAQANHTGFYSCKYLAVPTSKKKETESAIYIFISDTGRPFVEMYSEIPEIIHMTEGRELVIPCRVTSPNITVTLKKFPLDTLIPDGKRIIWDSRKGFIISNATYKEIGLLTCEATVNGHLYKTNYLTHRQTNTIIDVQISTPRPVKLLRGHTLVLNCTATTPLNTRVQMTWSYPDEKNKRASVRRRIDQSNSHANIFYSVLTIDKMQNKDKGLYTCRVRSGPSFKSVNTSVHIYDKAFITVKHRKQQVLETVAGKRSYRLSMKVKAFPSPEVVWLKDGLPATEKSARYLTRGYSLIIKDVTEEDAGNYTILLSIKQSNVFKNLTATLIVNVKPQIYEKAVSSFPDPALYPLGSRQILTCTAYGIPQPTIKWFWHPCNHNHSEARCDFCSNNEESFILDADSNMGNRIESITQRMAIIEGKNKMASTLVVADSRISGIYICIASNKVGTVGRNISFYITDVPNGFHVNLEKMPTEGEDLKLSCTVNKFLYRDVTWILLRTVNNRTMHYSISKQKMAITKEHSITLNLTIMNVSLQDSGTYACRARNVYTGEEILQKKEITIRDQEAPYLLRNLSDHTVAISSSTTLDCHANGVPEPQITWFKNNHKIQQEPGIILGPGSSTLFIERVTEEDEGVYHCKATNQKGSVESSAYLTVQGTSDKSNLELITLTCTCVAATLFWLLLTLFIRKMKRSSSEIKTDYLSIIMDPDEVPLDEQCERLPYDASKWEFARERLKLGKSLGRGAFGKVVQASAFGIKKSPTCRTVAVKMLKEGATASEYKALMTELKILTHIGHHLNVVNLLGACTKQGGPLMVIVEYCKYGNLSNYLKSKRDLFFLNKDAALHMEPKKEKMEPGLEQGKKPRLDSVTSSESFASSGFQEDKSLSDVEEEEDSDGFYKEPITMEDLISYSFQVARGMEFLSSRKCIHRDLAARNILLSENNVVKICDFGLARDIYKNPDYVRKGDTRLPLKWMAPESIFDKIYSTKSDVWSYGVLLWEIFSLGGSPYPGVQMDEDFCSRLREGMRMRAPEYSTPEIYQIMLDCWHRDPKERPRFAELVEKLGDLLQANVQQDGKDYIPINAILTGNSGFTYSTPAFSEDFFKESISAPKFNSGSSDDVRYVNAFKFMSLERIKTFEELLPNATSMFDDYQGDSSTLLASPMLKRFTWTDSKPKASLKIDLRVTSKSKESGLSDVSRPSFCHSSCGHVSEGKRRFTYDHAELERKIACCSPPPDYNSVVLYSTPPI

For `C[C@H](Nc1ncnc2nc[nH]c12)c1cc2cccc(Cl)c2c(=O)n1-c1ccccc1`, the Activity is 94.3% in test [1], 110% in test [2], 94.9% in test [3] and 93.3% in test [4].
`CC[C@H](Nc1ncnc2[nH]cnc12)c1nc2cccc(F)c2c(=O)n1-c1ccccc1`: the Activity is 94.4% in test [1], 98% in test [2], 101% in test [3] and 96.7% in test [4].
The corresponding values for `CC(C)Oc1ccc(-c2nn([C@@H](C)c3oc4ccc(F)cc4c(=O)c3-c3cccc(F)c3)c3ncnc(N)c23)cc1F` [UMBRALISIB] are 92.3%, 101%, 108% and 97.3%.

The record behind these values is ChEMBL document CHEMBL5715954, “Silencing c-Myc translation as a therapeutic strategy through targeting PI3Kδ and CK1ε in hematological malignancies” (Blood, 2017).
